Counter-ions that a name gives are not always drawn.
Assays:
[1] = cited from earlier work
angina pectoris = conditions: cited from earlier work
clinical = conditions: po, 120 mg
Experimental: (§1) An interval of approximately 5-7 days elapsed between the administration of each agent tested in this example.
(§2) (TM) containing EDTA (ethylenediamine tetraacetic acid) as an anticoagulant just before administration of the test agent; this sample represented the zero time sample. The blood sample was centrifuged for 15 minutes under conditions known to those skilled in the art. The plasma portion of each sample was harvested, frozen and stored at minus 70 degrees Celsius until analysis. At timed intervals after administration, additional blood samples were withdrawn and similarly treated.

[2] = oral, 120 mg diltiazem hydrochloride, after administration; FIG. 6
Experimental: as §1, §2

Row | Tmax (clinical; human, plasma) | Tmax (clinical; in vivo) | time by which most of the quick release preparation is gone (plasma) [2] | Compound | decrease in bioavailability by first-pass metabolism (loss) ([1]; oral) | plasma half-life ([1]; references 17, 19) | incidence of side effects compared with other calcium channel blockers (angina pectoris; human, in vivo) | safety and efficacy in stable and unstable angina pectoris (angina pectoris; reference 1)
1 | – | – | – | COc1ccc([C@@H]2Sc3ccccc3N(CCN(C)C)C(=O)[C@@H]2OC(C)=O)cc1 [diltiazem] | ≤ 60% | 2 to 6 h | lower incidence of side effects | safe and effective treatment for both stable and unstable angina pectoris
2 | 1 to 2 h | 1 to 2 h | 5 to 6 h | COc1ccc([C@@H]2Sc3ccccc3N(CCN(C)C)C(=O)[C@@H]2OC(C)=O)cc1 [diltiazem hydrochloride] | – | – | – | –
